Results on four compounds are retold here after US10844023B2 (Washington University, priority 2017, dated 2020).

As a reminder, the EC50 is the concentration at which the effect is half-maximal.

Read-outs that look alike come from different tables or passages of the source.

The test system of data set [1] is Mfn2 null MEFs. In words: Mitochondrial elongation (aspect ratio) fusogenicity assay. The format is cell-based, mouse. The following applies: for Fusogenic activity: mitochondrial elongation / fusion.
The target in data set [2] is T1, MFN2 HR2 (Homo sapiens, UniProt O95140).
T1 construct: host or cells: synthetic peptide (note in the listing); immobilised on Ni-NTA resin
T1 sequence (O95140 with tags, fused parts or gaps limits assumed): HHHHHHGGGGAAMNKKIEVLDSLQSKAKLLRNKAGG
As to the kind of experiment: HR1 peptide-HR2 target binding assay. The following applies: FITC minipeptide 374-384 at HR2 binding site. The source says: The Mfn-derived fusion-promoting and -inhibiting mini-peptides (simulated to obtain the chemical Mfn agonists in TABLE 1 and TABLE 2) were modified from amino acid heptad repeats (HR) in the HR1 domain and predicted to interact with their counterparts in the carboxyl terminus HR2 domain within the Mfn stalk region (see e.g., FIG. 1, top panel). A high-throughput binding assay was designed whereby the target HR2 peptide sequences, modified to include amino terminal 6×His tags and Gly linkers, were bonded to Ni-chelate resin (20 μg/ml) and used as immobilized “receptor” for amino-FITC-tagged Mfn2 374-384 (agonist ligand) in which the Ser analogous to Ser378 was replaced with Asp to confer the negative charge essential for activity. For antagonist studies the ligand was amino-FITC-tagged Mfn2 406-418. The FITC peptide ligands are suspended at 1 mM in 30% DMSO, 70% water (to minimize spontaneous aggregation) and diluted into binding buffer (de-ionized water) to a final concentration of 25 μM in the presence or absence of competing compound. Dose-dependent loss of resin-bound FITC signal (485 nm excitation/538 nm emission) measured in a 96 well spectrofluorometer represents binding of compound to its HR2 target (see e.g., FIG. 10, FIG. 11). Either the ligand peptide or the receptor peptide can be modified to represent mutations, variations, or posttranslational modifications of Mfn2. […]
Target HR2 peptide sequence modified to include amino terminal 6×His tags and Gly linkers, were bonded to Ni-NTA resin (4.4 μg/ml) (Quiagen) and used as immobilized “receptor” for amino-FITC-tagged Mfn2 374-384 (ligand) in which the Ser analogous to Ser378 was replaced with Asp to confer the negative charge essential for activity. […] Resin-bound FITC signal (485 nm excitation/538 nm emission) measured in a 96 well spectrofluorometer (Spectramax M5e, Molecular Devices) represented binding to HR2 target. Competition binding isotherms were plotted and IC50 values calculated using Prism 7 (GraphPad).

The subject of data set [3] is MFN2 Asp^378 and Ala^378 mutants. In words: Mitochondrial fusion with MFN2 Ser378 mutants (Asp378, Ala378). In kind it is cell-based, human.
Data set [4] concerns MFN2 T105M. In words: Reversal of mitochondrial dysmorphology provoked by MFN2 T105M in MEFs. The format is cell-based, mouse.
For data set [5], the system named is cultured neurons expressing MFN2 T105M. In words: Cultured mouse neurons expressing CMT2A mutant MFN2. The format is cell-based. On the procedure: Neonatal mouse hippocampal neurons were cultured from brains of one day old Mfn2 T105M or non-transgenic sibling mouse pups as described. After 10 days of differentiating culture neurons were infected with Adeno-Cre to induce Mfn2 T105M expression or Adeno-βgal as a control (50 MOI). After an additional 72 hours mitofusin agonists or DMSO vehicle were added. For static confocal imaging neuronal mitochondria were labeled with adenoviral-expressed mitoGFP plus TMRE. Autophagy was measured by LC3 aggregation in neurons infected with adenoviral LC3-GFP. For time-lapse studies of mitochondrial trafficking bi-cistronic Adeno-Cre/GFP marked Cre expression and mitochondria were labeled with adeno-mitoDsRed. Confocal live cell images were acquired with a time-lapse of 1 frame every 90 seconds for 1 hour.

For data set [6], the system named is MFN2 T105M sciatic nerves. As to the kind of experiment: Sciatic nerve axonal mitochondrial motility, agonist applied to the excised nerve. Also noted: species or system mouse. As for the experimental part: Sciatic nerves of 12-18 week old male or female MFN2 T105M mice were removed en bloc with the lumbar spine and axotomy at the tibial nerve, stained with TMEM ([…]) for 30 minutes in prewarmed Neurobasal Medium without phenol red (Thermo Fisher Scientific) at room temperature, washed, and maintained on the stage of a Nikon A1Rsi Confocal Microscope at 37 degrees C. for time-lapse confocal studies. Images were acquired with a 40×oil immersion objective at 1 frame every 5 or 10 seconds for sequential 10 minute periods. Mitofusin agonist chimera B-A/I was added after the first 10 minute imaging period (final concentrations of […]) and nerve axons imaged for another 40 minutes. Because there was no difference in mitochondrial trafficking or response to mitofusin agonist between male and female mice, the data were combined.

Data set [7] deals with ALS and HD patient-derived fibroblasts. In words: Mitochondrial health assays in ALS and HD patient-derived fibroblasts. In kind it is cell-based, human. As for the experimental part: HD patient-derived fibroblast cell lines (GM04693 from patient and GM05539 from patient) were purchased from Invitrogen. ALS patient-derived fibroblasts (ALS 1: ND29509 from patient having SOD1 mutation; ALS 2: ND30327 having FUS1 mutation) and fibroblasts of control healthy individuals were purchased from Coriell Institute, USA. All fibroblast cultures were maintained in MEM supplemented with 15% (v/v) FBS and 1% (v/v) penicillin/streptomycin at 37° C. in 5% CO2-95% air. Galactose media was used, to increase mitochondria-dependent metabolism oxidative phosphorylation. Human fibroblasts were switched to grow for 48 h in DMEM deprived of glucose and containing galactose (4.5 g/I), 1% FBS, 5 mM sodium pyruvate and 2 mM L-glutamine for the studies.
Cells cultured in 8-well chamber slides were washed with cold PBS, fixed in 4% formaldehyde, and permeabilized with 0.1% Triton X-100. After incubation with 2% normal goat serum (to block nonspecific staining), fixed cells were incubated overnight at 4° C. with TOM20 antibody (1:500) (Santa Cruz, USA). Cells were washed with PBS and incubated for 60 minutes with FITC-conjugated goat anti-rabbit IgG (1:500 dilution). The cells were then washed gently with PBS and counterstained with Hoechst 33342 (1:10,000 dilution, Molecular Probes) to visualize nuclei. The coverslips were mounted with Slow-fade anti-fade reagent (Invitrogen), and images were acquired at 60×using an All-in-One Fluorescence Microscope BZ-X700 (Keyence).
Cells were incubated with tetra-methyl-rhodamine methyl ester (TMRM, 25 nM, Invitrogen) in HBSS (Hank's balanced salt solution) for 30 min at 37° C., per the manufacture's protocol, and the fluorescence was analyzed to measure mitochondrial membrane potential. All data were normalized with respect to the fluorescence intensity of control cells. To determine mitochondrial ROS production, cells were treated with 5 μM MitoSOX™ Red, a mitochondrial superoxide indicator (Invitrogen) for 20 min at 37° C., according to the manufacturer's protocol, and fluorescence was analyzed using SpectraMax M2e (Molecular devices).

Data set [8] in a line: Plasma protein binding (equilibrium dialysis). In kind it is in vitro ADME. As for the experimental part:
(§1) Plasma protein binding was measured using equilibrium dialysis; % bound=(1-[free compound in dialysate]/[total compound in retentate])×100. Plasma stability of […] compound in clarified freeze-thawed plasma was assessed by LC-MS/MS of supernatants after protein precipitation; 120 min data are reported for studies including 0, 10, 30, 60, and 120 min. Microsome stability of […] compound in liver microsomes (0.5 mg/ml) after 0, 5, 10, 20, 30, 60 min. incubation was assessed by LC/MS/MS of reaction extracts.

A short description of data set [9]: Plasma protein binding, mouse. The following applies: read-out: plasma protein bound in the mouse (converted). The format is in vitro ADME. As for the experimental part: as §1
Data set [10] in a line: Liver microsome stability. The format is in vitro ADME. On the procedure:
as §1
In general terms: Liver microsomes are a subcellular fraction often used to study metabolism.

Data set [11] can be described thus: Parallel artificial membrane permeability assay (PAMPA). The format is in vitro ADME.
Data set [12] addresses P-gp/MDR1 (Homo sapiens, UniProt P08183). As to the kind of experiment: P-gp/MDR1 transport. In kind it is in vitro ADME.
Data set [13] can be described thus: In vivo pharmacokinetics in mice. The following applies: mouse, plasma, intramuscular, 1 mg/kg. On the procedure: (A) Three mice each were administered 1 mg/kg agonist IV, IP, or IM. Graphs are mean plasma concentration for each administration route. (B) Results for individual mice were administered 1 mg/kg indicated agonist IM.
Data set [14] relates to CMT2A MFN2 T105M mice. As to the kind of experiment: In vivo sciatic nerve mitochondrial motility in CMT2A mice. Also noted: species or system mouse. The following applies: IM, 2 mg/kg, assessed 4 hours later. As for the experimental part: Sciatic nerve mitochondrial motility was measured 4 hours later. Results described in FIG. 58 are for 2 CMT2A mice per group.
Data set [15] is described as follows: Solubility in 50 mM phosphate buffer (pH 7.4). The format is physicochemical.
The nature of data set [16]: Plasma stability. In kind it is in vitro ADME. As for the experimental part: as §1
[17] abbreviates: ALS and HD patient-derived fibroblasts.

Chain of P-gp/MDR1 (P08183 whole entry): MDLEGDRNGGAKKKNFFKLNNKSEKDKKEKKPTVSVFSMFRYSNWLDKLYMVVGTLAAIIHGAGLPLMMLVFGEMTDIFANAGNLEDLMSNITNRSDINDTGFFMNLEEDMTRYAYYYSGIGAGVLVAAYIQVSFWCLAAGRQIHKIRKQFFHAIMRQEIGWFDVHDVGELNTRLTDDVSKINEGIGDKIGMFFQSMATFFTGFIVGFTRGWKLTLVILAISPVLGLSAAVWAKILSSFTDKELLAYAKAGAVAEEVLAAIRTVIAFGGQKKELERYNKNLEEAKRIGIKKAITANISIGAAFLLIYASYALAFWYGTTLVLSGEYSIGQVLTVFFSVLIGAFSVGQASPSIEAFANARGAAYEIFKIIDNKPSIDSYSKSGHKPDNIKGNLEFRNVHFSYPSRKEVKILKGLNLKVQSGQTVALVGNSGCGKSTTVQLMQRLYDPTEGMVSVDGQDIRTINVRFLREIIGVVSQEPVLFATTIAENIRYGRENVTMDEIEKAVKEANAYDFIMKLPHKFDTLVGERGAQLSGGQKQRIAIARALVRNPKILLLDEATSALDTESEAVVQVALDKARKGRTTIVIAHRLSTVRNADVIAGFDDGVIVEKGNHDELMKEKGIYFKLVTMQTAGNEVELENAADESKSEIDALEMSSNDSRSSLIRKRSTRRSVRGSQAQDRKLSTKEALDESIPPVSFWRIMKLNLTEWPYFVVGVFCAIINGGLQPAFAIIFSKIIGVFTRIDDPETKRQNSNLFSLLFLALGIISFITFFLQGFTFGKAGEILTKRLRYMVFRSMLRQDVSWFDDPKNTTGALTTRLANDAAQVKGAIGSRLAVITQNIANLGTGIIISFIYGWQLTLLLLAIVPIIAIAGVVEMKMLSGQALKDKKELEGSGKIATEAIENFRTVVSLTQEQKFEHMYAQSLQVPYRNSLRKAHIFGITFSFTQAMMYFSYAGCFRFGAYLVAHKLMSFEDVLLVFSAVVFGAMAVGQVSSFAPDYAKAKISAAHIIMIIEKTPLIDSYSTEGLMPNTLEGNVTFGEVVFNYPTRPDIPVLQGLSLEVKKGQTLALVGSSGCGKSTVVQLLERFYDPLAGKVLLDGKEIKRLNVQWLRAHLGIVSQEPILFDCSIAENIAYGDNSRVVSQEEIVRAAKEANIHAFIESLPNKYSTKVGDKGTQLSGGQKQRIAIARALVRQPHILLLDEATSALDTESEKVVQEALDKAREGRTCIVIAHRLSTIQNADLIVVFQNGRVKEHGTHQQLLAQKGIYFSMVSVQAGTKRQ

For the compound `CC1CCCCC1NC(=O)NCCSc1nnc(C2CC2)n1-c1ccccc1` (racemic) [B-A/I, 1-(2-((5-cyclopropyl-4-phenyl-4H-1,2,4-triazol-3-yl)thio)ethyl)-3-(2-methylcyclohexyl)urea], the “Fusogenic activity” value in data set [1] is reported as “potently stimulated mitochondrial fusion”. In addition, in data set [2], the “Binding to / competition at HR2 target” value is “competed for minipeptide binding at the MFN2 HR2 interaction site”. The “Selectivity of fusogenic effect for phosphomimic Asp378 vs nonphosphorylatable Ala378 MFN2” value in data set [3] was “non-selective”. The “Reversal of mitochondrial dysmorphology provoked by MFN2 T105M” value in [4] is given as “as effective as the combination of Cpds A+B”. In addition, in data set [5], the “Mitochondrial motility in cultured neurons expressing MFN2 T105M” value is listed as “restored mitochondrial motility”. In data set [6], the “Mitochondrial motility in MFN2 T105M sciatic nerves” value is on record as “restored mitochondrial motility to within normal levels”. In [7] (setting [17]), the “Mitochondrial ROS levels” value is reported as “reduces mitochondrial ROS levels”, the Mitochondrial membrane potential entry is “improves mitochondrial membrane potential” and the Mitochondrial structural defects result was “enhances mitochondrial structural defects”. Besides, the “Effect on fibroblasts from control subjects” value in data set [7] (control fibroblasts) was “has no effect on fibroblasts from control subjects”.
Turning to `CCn1c(CCCNC(=O)NC2CCOCC2)nnc1C1CC1` [Mitolityn-4, 1-(3-(5-cyclopropyl-4-ethyl-4H-1,2,4-triazol-3-yl)propyl)-3-(tetrahydro-2H-pyran-4-yl)urea], in [1] (Mus musculus, increase in mitochondrial aspect ratio), the EC50 is around 3 nM. The “Fusogenic activity” value in data set [1] is listed as “highest potency”. The “Plasma protein binding” value in [8] is given as “low plasma protein binding”. For the same compound, the fraction unbound in data set [9] is 0.888. Also, in [10], the “Liver microsome stability” value is recorded as “stability in the liver microsome assay”. Besides, the “Passive diffusion across lipid-infused artificial membrane (PAMPA, words)” value in data set [11] is “no passive diffusion across lipid membrane”. The “P-gp mediated transport” value in data set [12] is listed as “no reverse transport by P-gp”. The concentration at 2 h in data set [13] (1 mg/kg IM, read-out: total plasma drug concentration 2 hours after IM administration) was 7.5 ng/mL; in [13] (IM, from total concentration and protein binding, read-out: free drug concentration 2 hours after IM administration), around 6.66 ng/mL; in data set [13] (IM, read-out: free drug concentration 2 hours after IM administration), around 20 nM.
Take `O=C(NCCCc1nnc(C2CC2)n1-c1ccccc1)NC1CCOCC1` [Regeneurin-C/O, 1-(3-(5-cyclopropyl-4-phenyl-4H-1,2,4-triazol-3-yl)propyl)-3-(tetrahydro-2H-pyran-4-yl)urea]: the “Sciatic nerve axon mitochondrial motility in vivo” value in data set [14] is “reverses the characteristic mitochondrial immobility in sciatic nerve axons”.
In the case of `CC1CCCCC1NC(=O)NCCSc1nnc(C2CC2)n1-c1ccccc1` (centres unmarked) [Regeneurin-S, 1-(2-((5-cyclopropyl-4-phenyl-4H-1,2,4-triazol-3-yl)thio)ethyl)-3-(2-methylcyclohexyl)urea], in [6], the “Mitochondrial motility in MFN2 T105M sciatic nerves” value is “rapidly correct mitochondrial dysmotility”. Further, the “Solubility” value in data set [15] is given as “soluble”. Besides, the “Plasma protein binding” value in data set [8] was “highly protein bound”. In [16], the “Plasma stability” value was “stable in plasma”. Moreover, the “Liver microsome stability” value in [10] is on record as “rapidly degraded by liver microsomes”.
